We go through 2 compounds from PMC3161034 (BMC Cancer, 2011).

For data set [1], the system named is cytochrome P450 (CYP) 3A4. Particulars: cited from earlier work.
For data set [2], the system named is patients with advanced NSCLC. The following applies: cited from earlier work.
For data set [3], the system named is patients with solid tumors. Briefly: Adverse events graded by CTCAE version 3.0, relatedness by investigator. The format is in vivo, human. The following applies: for Patients discontinuing treatment with the drug because of adverse events: all cohorts. On the procedure: Cohort enrollment could be expanded to ensure that at least 6 evaluable patients were enrolled or in the event of unresolved safety, pharmacokinetic, or other concerns. The overall sample size could be further increased if additional dose cohorts were considered justified based on the results from the dose-escalation portion of the study. For continuous endpoints, the mean, standard error or standard deviation (SD); median; 25th and 75th percentiles; and minimum and maximum were calculated. For discrete data, the frequency and percent distributions were calculated. No formal comparisons between cohorts were performed. The data were analyzed using SAS software version 8.2 (SAS Institute, Cary, NC). […] The safety analysis set included all patients who received at least 1 dose of study therapy.

For data set [4], the system named is CYP1A2. Particulars: cited from earlier work.
Data set [5] can be described thus: clinical. The following applies: for Tmax: Median tmax. As for the experimental part:
Plasma concentrations of motesanib were analyzed using a validated liquid chromatography/tandem mass spectrometry (LC-MS/MS) method with a lower limit of quantitation (LLOQ) of 0.2 ng/mL (Cedra Corp., Austin, TX).
Pharmacokinetic parameter estimates were calculated according to standard noncompartmental methods using WinNonlin software (version 5.1.1; Pharsight Corporation, Mountain View, CA) and summarized by dose level. […] For the BID cohort, AUC0—24 values for motesanib were determined by 2 × AUC0—12. The terminal elimination rate constant (λZ) was determined by linear regression of the natural logarithms of plasma concentrations versus time during the terminal phase; the corresponding t1/2 was calculated.
The GLSM were calculated by first obtaining the least squares means for the log-transformed Cmax values (logCmax) and AUC0—24 values (logAUC0—24) for weeks 3 and 2, and then converting these values back to the original scale. The ratio and 90% confidence interval (CI) of GLSM was calculated by first estimating the difference (and 90% CI) in the least squares means between weeks 3 and 2 for logCmax and logAUC0—24, and then converting the numbers back to their original scale.

Data set [6] relates to deoxycytidine deaminase. More on the design: method as in PMID 16807468. Particulars: cited from earlier work.
Setting [7] is: 56 patients who received erlotinib.

Usually half-life stands for the time needed for the level to fall by half in the phase considered. Low values mean rapid decline, high ones slow decline. The term Tmax denotes the time from dosing to the highest level. As to `C#Cc1cccc(Nc2ncnc3cc(OCCOC)c(OCCOC)cc23)c1` [erlotinib], the “Metabolism by CYP3A4” value in data set [1] is reported as “metabolized at least in part”. Further, in data set [2] (phase 3, advanced NSCLC after failed first-line therapy), the Progression-free survival is recorded as 1.7 mo. Also, in data set [2] (phase 3, P = 0.006), the Response rate is reported as 6.2%. Moreover, in data set [2] (phase 3), the Overall survival is listed as 9.2 mo. In data set [3] (setting [7]), this compound came in with an Erlotinib-related anorexia of 16 n, an Erlotinib-related diarrhea of 35 n, an Erlotinib-related fatigue of 14 n and an Erlotinib-related nausea of 23 n. In data set [3] (setting [7]), the Erlotinib-related rash is listed as 42 n and the Erlotinib-related vomiting is on record as 15 n. The “Patients discontinuing treatment with the drug because of adverse events” value in data set [3] stood at 7 n. Also, the “Incidence of erlotinib-related skin rash” value in data set [3] (present study, all patients) turned out to be 75%. Moreover, the “Metabolism by CYP1A2” value in data set [4] is on record as “metabolized at least in part”. For the same compound, in data set [5] (human, in vivo, 100 mg), the “Mean t1/2, z” value fell in the range of 12 to 19 h and the Tmax was 2 to 6 h. This compound also came in with a half-life in data set [5] (human, in vivo, 100 mg, Mean t1/2, z) of 17 to 33 h. In addition, in data set [5] (human, in vivo, 150 mg), the Median tmax fell in the range of 2 to 4 h and the Tmax was in the range of 1 to 3 h. Besides, the Overall median tmax in data set [5] (week 3, 100 mg erlotinib QD with gemcitabine and motesanib) worked out at 2 h.

Take `Nc1ccn([C@@H]2O[C@H](CO)[C@@H](O)C2(F)F)c(=O)n1` [gemcitabine, reference compound]: the “Metabolism by deoxycytidine deaminase” value in data set [6] is reported as “primarily metabolized”. Moreover, the “Patients discontinuing treatment with the drug because of adverse events” value in data set [3] is 8 n.
